{"source": "patent US8399466B2", "about": "“Composition for regenerative treatment of cartilage disease” (Mitsubishi Tanabe Pharma Corporation, priority 2001, dated 2013)", "tested_on": "gonarthrosis induced by partial excision of medial meniscus/abscission of bilateral collateral ligaments", "test": "Regenerative healing effects on gonarthrosis induced by partial excision of medial meniscus/abscission of bilateral collateral ligaments", "assay_type": "in vivo, rabbit", "conditions": "1 μg in microsphere of Example 7-(1), intra-articular two and six weeks after operation; ten weeks after operation; control 18.86 ± 2.03", "experimental": "Japanese White rabbits (male; 10-week-old; 7 rabbits/group) were housed for 16 days at room temperature (23±2° C.) and 55±15% humidity. During the housing period, the rabbits were free to access commercially available food (Oriental Bio Service; LRC4).\nUnder ether anesthesia, the right knee joint of each rabbit was excised and ½ portion of medial meniscus was isolated with double-edged small straight scissors. The bilateral collateral ligaments were also cut. After the operation, muscle and epidermal tissues were sutured and sterilized. Two weeks from the operation, under ether anesthesia, each rabbit of the test group (7 rabbits/group) was administered intra-articularly the drug-containing microsphere prepared in Example 7-(1), which contains 1 μg of Compound (2). The rabbit of the control group (7 rabbits/group) received the same amount of drug-free microsphere prepared in Control Example 2. […]\nAfter wiping off the excess India Ink, the overhead surface image of the formalin-fixed tibial proximal end was imported into an analyzer, Image Analyzer (IMAGING RESEARCH, MICD imaging analyzer), with a stereomicroscope (OLYMPUS OPTICAL Co., Ltd. model SZX12-2111). […] The gross medial area was also measured and the percentage (%) (the degenerated area rate) of the degenerated medial area in the gross medial area was calculated."}
{"smiles": "CCOc1cc2cc(CO)c(CO)c(-c3ccnc(-n4nc(-c5cccnc5)c5ccccc5c4=O)c3)c2cc1OCC", "note": "[Compound (2)]", "values": [{"measurement": "Degenerated Area Rate (%)", "result": "10.16 ± 1.35", "unit": "%"}]}
